{"source": "the kinase profiling compilation of Christmann-Franck et al. (2016)", "test_in_all_cases": "KINOMEscan competition binding", "details_in_all_cases": "compound 1.0 µM", "key": {"ACVRL1 (human)": {"molecular_target": "ACVRL1 (human) (UniProt P37023)"}, "AKT1 (human)": {"molecular_target": "AKT1 (human) (UniProt P31749)"}, "AURKB (human)": {"molecular_target": "AURKB (human) (UniProt Q96GD4)"}, "AURKC (human)": {"molecular_target": "AURKC (human) (UniProt Q9UQB9)"}, "BRAF (human)": {"molecular_target": "BRAF (human) (UniProt P15056)"}, "CAMK1G (human)": {"molecular_target": "CAMK1G (human) (UniProt Q96NX5)"}, "CDK4 CCND3 (human)": {"molecular_target": "CDK4 CCND3 (human) (UniProt P11802+P30281)"}, "CDKL5 (human)": {"molecular_target": "CDKL5 (human) (UniProt O76039)"}, "CSNK1A1 (human)": {"molecular_target": "CSNK1A1 (human) (UniProt P48729)"}, "CSNK1G1 (human)": {"molecular_target": "CSNK1G1 (human) (UniProt Q9HCP0)"}, "DAPK3 (human)": {"molecular_target": "DAPK3 (human) (UniProt O43293)", "sequence (O43293 whole entry, looked up)": "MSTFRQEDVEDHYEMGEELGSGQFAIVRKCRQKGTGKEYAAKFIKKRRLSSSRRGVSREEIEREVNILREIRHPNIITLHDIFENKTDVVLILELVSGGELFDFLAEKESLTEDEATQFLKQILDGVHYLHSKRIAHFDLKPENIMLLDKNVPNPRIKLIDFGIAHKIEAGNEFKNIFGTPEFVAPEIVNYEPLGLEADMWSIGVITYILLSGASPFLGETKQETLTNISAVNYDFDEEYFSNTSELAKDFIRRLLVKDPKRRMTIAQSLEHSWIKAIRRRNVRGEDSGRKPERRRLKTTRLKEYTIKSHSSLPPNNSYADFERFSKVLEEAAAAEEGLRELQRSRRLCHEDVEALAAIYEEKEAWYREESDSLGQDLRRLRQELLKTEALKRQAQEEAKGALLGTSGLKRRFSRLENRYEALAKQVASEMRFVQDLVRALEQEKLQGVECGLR"}, "DMPK (human)": {"molecular_target": "DMPK (human) (UniProt Q09013)"}, "ERN1 (human)": {"molecular_target": "ERN1 (human) (UniProt O75460)"}, "GRK1 (human)": {"molecular_target": "GRK1 (human) (UniProt Q15835)"}, "HIPK1 (human)": {"molecular_target": "HIPK1 (human) (UniProt Q86Z02)"}, "IKBKE (human)": {"molecular_target": "IKBKE (human) (UniProt Q14164)"}, "[1]": {"tested_on": "KIT (human), P10721 [D816V]"}, "[2]": {"tested_on": "KIT (human), P10721 [L576P]"}, "MAP4K1 (human)": {"molecular_target": "MAP4K1 (human) (UniProt Q92918)"}, "MELK (human)": {"molecular_target": "MELK (human) (UniProt Q14680)"}, "NEK3 (human)": {"molecular_target": "NEK3 (human) (UniProt P51956)", "sequence (P51956 whole entry, looked up)": "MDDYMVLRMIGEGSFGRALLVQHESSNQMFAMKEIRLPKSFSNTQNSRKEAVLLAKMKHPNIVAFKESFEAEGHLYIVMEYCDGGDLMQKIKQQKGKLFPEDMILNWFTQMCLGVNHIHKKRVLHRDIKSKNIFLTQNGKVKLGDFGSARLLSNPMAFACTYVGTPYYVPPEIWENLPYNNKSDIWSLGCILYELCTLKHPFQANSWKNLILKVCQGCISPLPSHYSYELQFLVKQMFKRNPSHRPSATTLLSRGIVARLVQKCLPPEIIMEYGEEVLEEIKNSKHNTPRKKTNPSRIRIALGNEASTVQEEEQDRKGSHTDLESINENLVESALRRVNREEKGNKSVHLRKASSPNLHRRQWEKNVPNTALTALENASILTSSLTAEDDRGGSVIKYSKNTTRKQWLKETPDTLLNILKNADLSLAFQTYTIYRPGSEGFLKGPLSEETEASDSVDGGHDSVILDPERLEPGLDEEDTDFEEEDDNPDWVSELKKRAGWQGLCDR"}, "NEK6 (human)": {"molecular_target": "NEK6 (human) (UniProt Q9HC98)"}, "NEK7 (human)": {"molecular_target": "NEK7 (human) (UniProt Q8TDX7)"}, "PAK3 (human)": {"molecular_target": "PAK3 (human) (UniProt O75914)"}, "PAK4 (human)": {"molecular_target": "PAK4 (human) (UniProt O96013)"}, "PIK3C2B (human)": {"molecular_target": "PIK3C2B (human) (UniProt O00750)"}, "[3]": {"tested_on": "PIK3CA (human), P42336 [E545A]"}, "PIK3CB (human)": {"molecular_target": "PIK3CB (human) (UniProt P42338)"}, "PIK3CG (human)": {"molecular_target": "PIK3CG (human) (UniProt P48736)"}, "PKMYT1 (human)": {"molecular_target": "PKMYT1 (human) (UniProt Q99640)", "sequence (Q99640 whole entry, looked up)": "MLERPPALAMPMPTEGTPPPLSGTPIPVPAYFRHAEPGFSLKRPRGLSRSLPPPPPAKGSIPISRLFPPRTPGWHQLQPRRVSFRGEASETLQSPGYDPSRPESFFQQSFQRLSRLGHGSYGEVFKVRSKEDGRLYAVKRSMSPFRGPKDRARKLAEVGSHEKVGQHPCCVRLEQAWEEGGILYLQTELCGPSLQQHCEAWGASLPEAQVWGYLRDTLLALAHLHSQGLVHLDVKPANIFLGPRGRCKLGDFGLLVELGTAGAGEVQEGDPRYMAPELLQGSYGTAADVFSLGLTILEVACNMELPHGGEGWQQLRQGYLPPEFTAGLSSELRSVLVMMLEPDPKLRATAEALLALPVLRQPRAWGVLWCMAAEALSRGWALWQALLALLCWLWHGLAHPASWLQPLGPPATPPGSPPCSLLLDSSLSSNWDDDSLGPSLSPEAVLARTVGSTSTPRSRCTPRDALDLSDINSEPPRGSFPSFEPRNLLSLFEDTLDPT"}, "PLK4 (human)": {"molecular_target": "PLK4 (human) (UniProt O00444)", "sequence (O00444 whole entry, looked up)": "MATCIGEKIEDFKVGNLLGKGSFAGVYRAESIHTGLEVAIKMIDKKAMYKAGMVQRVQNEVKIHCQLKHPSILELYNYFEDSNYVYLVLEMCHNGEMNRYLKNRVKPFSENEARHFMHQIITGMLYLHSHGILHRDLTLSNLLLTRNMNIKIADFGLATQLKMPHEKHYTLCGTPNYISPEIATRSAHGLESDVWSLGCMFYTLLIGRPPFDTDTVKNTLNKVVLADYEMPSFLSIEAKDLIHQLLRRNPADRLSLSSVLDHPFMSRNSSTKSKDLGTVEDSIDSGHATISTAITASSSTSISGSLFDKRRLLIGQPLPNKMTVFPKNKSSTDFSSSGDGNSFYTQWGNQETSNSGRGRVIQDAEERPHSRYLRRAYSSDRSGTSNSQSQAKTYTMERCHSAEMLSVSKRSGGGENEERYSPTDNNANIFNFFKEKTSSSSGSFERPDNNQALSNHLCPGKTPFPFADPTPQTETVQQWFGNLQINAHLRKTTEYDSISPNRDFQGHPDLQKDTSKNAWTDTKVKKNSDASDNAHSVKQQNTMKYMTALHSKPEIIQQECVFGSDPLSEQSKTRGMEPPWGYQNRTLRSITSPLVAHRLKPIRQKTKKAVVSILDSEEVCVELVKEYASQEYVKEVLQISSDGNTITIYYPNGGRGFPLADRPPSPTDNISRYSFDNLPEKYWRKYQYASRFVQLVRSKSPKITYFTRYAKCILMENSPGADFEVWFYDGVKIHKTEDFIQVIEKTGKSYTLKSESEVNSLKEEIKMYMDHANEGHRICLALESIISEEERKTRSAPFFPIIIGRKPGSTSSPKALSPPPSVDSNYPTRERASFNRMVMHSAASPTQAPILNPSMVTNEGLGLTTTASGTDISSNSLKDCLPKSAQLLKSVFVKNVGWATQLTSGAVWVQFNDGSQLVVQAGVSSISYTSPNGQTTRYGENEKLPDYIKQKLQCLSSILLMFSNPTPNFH"}, "PRKCE (human)": {"molecular_target": "PRKCE (human) (UniProt Q02156)"}, "PRKD1 (human)": {"molecular_target": "PRKD1 (human) (UniProt Q15139)", "sequence (Q15139 whole entry, looked up)": "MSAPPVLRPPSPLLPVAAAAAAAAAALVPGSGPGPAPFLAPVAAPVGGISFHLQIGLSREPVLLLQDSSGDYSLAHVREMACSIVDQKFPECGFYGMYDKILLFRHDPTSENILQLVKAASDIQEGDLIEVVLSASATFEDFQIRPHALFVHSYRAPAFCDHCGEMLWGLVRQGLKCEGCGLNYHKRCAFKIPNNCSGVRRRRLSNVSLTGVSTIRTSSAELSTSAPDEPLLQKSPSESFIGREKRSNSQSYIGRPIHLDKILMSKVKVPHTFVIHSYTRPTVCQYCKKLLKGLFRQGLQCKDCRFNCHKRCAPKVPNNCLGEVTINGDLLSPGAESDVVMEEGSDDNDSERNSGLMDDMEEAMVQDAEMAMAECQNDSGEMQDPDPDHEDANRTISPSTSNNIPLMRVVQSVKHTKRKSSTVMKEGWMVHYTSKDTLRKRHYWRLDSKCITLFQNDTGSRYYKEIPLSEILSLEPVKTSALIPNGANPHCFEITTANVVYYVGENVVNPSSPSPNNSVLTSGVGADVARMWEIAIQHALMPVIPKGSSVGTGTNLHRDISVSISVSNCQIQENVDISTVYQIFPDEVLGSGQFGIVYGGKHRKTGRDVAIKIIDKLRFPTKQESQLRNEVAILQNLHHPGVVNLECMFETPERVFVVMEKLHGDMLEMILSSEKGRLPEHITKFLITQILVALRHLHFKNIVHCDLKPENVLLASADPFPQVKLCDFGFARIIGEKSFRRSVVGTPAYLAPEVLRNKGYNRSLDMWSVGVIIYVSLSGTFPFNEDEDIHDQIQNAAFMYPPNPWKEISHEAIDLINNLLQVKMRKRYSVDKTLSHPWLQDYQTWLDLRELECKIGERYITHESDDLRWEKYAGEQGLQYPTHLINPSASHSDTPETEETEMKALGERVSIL"}, "PRKG2 (human)": {"molecular_target": "PRKG2 (human) (UniProt Q13237)", "sequence (Q13237 whole entry, looked up)": "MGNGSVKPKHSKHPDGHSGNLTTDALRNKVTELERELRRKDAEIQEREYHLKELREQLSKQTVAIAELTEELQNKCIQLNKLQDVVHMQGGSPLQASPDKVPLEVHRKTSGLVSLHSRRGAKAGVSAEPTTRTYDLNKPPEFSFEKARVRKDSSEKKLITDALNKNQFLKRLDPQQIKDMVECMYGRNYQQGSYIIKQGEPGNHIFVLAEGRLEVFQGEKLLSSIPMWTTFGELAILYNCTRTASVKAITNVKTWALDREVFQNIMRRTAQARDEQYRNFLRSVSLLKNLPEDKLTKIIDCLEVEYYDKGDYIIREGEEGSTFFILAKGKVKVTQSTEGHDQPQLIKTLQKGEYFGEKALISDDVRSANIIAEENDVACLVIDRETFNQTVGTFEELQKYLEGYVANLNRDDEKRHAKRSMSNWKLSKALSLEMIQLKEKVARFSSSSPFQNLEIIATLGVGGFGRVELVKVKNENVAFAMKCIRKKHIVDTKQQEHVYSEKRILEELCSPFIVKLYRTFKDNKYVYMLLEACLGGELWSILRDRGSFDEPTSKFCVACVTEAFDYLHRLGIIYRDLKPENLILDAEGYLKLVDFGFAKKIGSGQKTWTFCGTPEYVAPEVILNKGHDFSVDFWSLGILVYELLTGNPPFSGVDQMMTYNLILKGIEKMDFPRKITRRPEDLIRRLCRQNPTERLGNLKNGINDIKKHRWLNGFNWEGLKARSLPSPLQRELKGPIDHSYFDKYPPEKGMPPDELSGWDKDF"}, "PRKX (human)": {"molecular_target": "PRKX (human) (UniProt P51817)"}, "PTK6 (human)": {"molecular_target": "PTK6 (human) (UniProt Q13882)"}, "RIOK1 (human)": {"molecular_target": "RIOK1 (human) (UniProt Q9BRS2)"}, "RIPK4 (human)": {"molecular_target": "RIPK4 (human) (UniProt P57078)"}, "RPS6KA4 KD2 (human)": {"molecular_target": "RPS6KA4 KD2 (human) (UniProt O75676)", "sequence (O75676 whole entry, looked up)": "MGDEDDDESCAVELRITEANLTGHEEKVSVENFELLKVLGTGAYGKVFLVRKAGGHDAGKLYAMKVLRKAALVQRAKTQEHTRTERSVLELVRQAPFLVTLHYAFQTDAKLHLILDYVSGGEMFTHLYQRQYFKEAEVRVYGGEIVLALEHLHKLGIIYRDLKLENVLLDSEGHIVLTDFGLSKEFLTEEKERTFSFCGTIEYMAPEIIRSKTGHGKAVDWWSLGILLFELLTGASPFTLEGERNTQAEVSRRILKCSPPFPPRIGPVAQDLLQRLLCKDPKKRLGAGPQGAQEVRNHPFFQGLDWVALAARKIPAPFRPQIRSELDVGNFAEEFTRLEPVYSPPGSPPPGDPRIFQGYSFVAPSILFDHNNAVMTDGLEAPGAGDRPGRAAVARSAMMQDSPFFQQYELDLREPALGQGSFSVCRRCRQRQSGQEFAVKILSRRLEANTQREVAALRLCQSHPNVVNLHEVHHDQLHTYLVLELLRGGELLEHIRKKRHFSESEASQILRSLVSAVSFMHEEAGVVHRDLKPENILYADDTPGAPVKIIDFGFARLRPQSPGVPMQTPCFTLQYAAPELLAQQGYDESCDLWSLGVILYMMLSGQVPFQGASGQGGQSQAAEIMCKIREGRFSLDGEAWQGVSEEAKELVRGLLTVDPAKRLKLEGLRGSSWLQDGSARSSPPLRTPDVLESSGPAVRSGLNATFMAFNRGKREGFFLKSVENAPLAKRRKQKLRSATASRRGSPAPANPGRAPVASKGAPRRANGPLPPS"}, "SBK1 (human)": {"molecular_target": "SBK1 (human) (UniProt Q52WX2)"}, "SIK1 (human)": {"molecular_target": "SIK1 (human) (UniProt P57059)"}, "SIK2 (human)": {"molecular_target": "SIK2 (human) (UniProt Q9H0K1)"}, "STK16 (human)": {"molecular_target": "STK16 (human) (UniProt O75716)"}}, "data": [{"compound": "CN(C)C/C=C/C(=O)Nc1cccc(C(=O)Nc2ccc(Nc3nccc(-c4c(-c5ccccc5)nn5ccccc45)n3)cc2)c1", "values": [{"measurement": "kinase still bound, per cent of control", "setting": "ACVRL1 (human)", "result": 22, "unit": "%"}, {"measurement": "kinase still bound, per cent of control", "setting": "AKT1 (human)", "result": 100, "unit": "%"}, {"measurement": "kinase still bound, per cent of control", "setting": "AURKB (human)", "result": 85, "unit": "%"}, {"measurement": "kinase still bound, per cent of control", "setting": "AURKC (human)", "result": 84, "unit": "%"}, {"measurement": "kinase still bound, per cent of control", "setting": "BRAF (human)", "result": 43, "unit": "%"}, {"measurement": "kinase still bound, per cent of control", "setting": "CAMK1G (human)", "result": 94, "unit": "%"}, {"measurement": "kinase still bound, per cent of control", "setting": "CDK4 CCND3 (human)", "result": 81, "unit": "%"}, {"measurement": "kinase still bound, per cent of control", "setting": "CDKL5 (human)", "result": 100, "unit": "%"}, {"measurement": "kinase still bound, per cent of control", "setting": "CSNK1A1 (human)", "result": 2, "unit": "%"}, {"measurement": "kinase still bound, per cent of control", "setting": "CSNK1G1 (human)", "result": 39, "unit": "%"}, {"measurement": "kinase still bound, per cent of control", "setting": "DAPK3 (human)", "result": 93, "unit": "%"}, {"measurement": "kinase still bound, per cent of control", "setting": "DMPK (human)", "result": 59, "unit": "%"}, {"measurement": "kinase still bound, per cent of control", "setting": "ERN1 (human)", "result": 100, "unit": "%"}, {"measurement": "kinase still bound, per cent of control", "setting": "GRK1 (human)", "result": 100, "unit": "%"}, {"measurement": "kinase still bound, per cent of control", "setting": "HIPK1 (human)", "result": 100, "unit": "%"}, {"measurement": "kinase still bound, per cent of control", "setting": "IKBKE (human)", "result": 95, "unit": "%"}, {"measurement": "kinase still bound, per cent of control", "setting": "[1]", "result": 33, "unit": "%"}, {"measurement": "kinase still bound, per cent of control", "setting": "[2]", "result": 3, "unit": "%"}, {"measurement": "kinase still bound, per cent of control", "setting": "MAP4K1 (human)", "result": 69, "unit": "%"}, {"measurement": "kinase still bound, per cent of control", "setting": "MELK (human)", "result": 100, "unit": "%"}, {"measurement": "kinase still bound, per cent of control", "setting": "NEK3 (human)", "result": 99, "unit": "%"}, {"measurement": "kinase still bound, per cent of control", "setting": "NEK6 (human)", "result": 100, "unit": "%"}, {"measurement": "kinase still bound, per cent of control", "setting": "NEK7 (human)", "result": 100, "unit": "%"}, {"measurement": "kinase still bound, per cent of control", "setting": "PAK3 (human)", "result": 52, "unit": "%"}, {"measurement": "kinase still bound, per cent of control", "setting": "PAK4 (human)", "result": 91, "unit": "%"}, {"measurement": "kinase still bound, per cent of control", "setting": "PIK3C2B (human)", "result": 100, "unit": "%"}, {"measurement": "kinase still bound, per cent of control", "setting": "[3]", "result": 100, "unit": "%"}, {"measurement": "kinase still bound, per cent of control", "setting": "PIK3CB (human)", "result": 100, "unit": "%"}, {"measurement": "kinase still bound, per cent of control", "setting": "PIK3CG (human)", "result": 84, "unit": "%"}, {"measurement": "kinase still bound, per cent of control", "setting": "PKMYT1 (human)", "result": 100, "unit": "%"}, {"measurement": "kinase still bound, per cent of control", "setting": "PLK4 (human)", "result": 92, "unit": "%"}, {"measurement": "kinase still bound, per cent of control", "setting": "PRKCE (human)", "result": 93, "unit": "%"}, {"measurement": "kinase still bound, per cent of control", "setting": "PRKD1 (human)", "result": 20, "unit": "%"}, {"measurement": "kinase still bound, per cent of control", "setting": "PRKG2 (human)", "result": 83, "unit": "%"}, {"measurement": "kinase still bound, per cent of control", "setting": "PRKX (human)", "result": 94, "unit": "%"}, {"measurement": "kinase still bound, per cent of control", "setting": "PTK6 (human)", "result": 82, "unit": "%"}, {"measurement": "kinase still bound, per cent of control", "setting": "RIOK1 (human)", "result": 100, "unit": "%"}, {"measurement": "kinase still bound, per cent of control", "setting": "RIPK4 (human)", "result": 100, "unit": "%"}, {"measurement": "kinase still bound, per cent of control", "setting": "RPS6KA4 KD2 (human)", "result": 91, "unit": "%"}, {"measurement": "kinase still bound, per cent of control", "setting": "SBK1 (human)", "result": 92, "unit": "%"}, {"measurement": "kinase still bound, per cent of control", "setting": "SIK1 (human)", "result": 29, "unit": "%"}, {"measurement": "kinase still bound, per cent of control", "setting": "SIK2 (human)", "result": 42, "unit": "%"}, {"measurement": "kinase still bound, per cent of control", "setting": "STK16 (human)", "result": 37, "unit": "%"}]}]}
